The results in this text go back to patent US20150231276A1, “ROLE OF DH44 AND HOMOLOGS IN CALORIE SENSING” (New York University, priority 2014, published 2015).

The structures appear in SMILES notation. “Also recorded” adds a separate entry of the source. Where two headings read alike, the source gives them in different places.

Assay [1] relates to Dh44+ cells. Put plainly: Ca2+ imaging (GCaMP3.0) of Dh44+ cell activity in response to sugars, ex vivo fly brains. Type of assay: cell-based, Drosophila melanogaster. To be noted: for activation of Dh44+ cells: perfusion of sugar, brains of PDh44 GAL4>UAS-GCaMP3.0 flies, D-glucose 5, 20, 80 mM; for peak amplitude, oscillation number and frequency of Dh44+ cells activation: non-metabolized sugar treatment.

Assay [2] relates to Dh44+ cells. The assay can be described thus: Ex vivo destaining experiment: Dh44 peptide release quantified by αDh44 immunofluorescence. Type of assay: cell-based, Drosophila melanogaster. To be noted: for release of the Dh44 peptide (amount of Dh44 peptide left inside Dh44+ cells): brains of 18 h-food deprived flies incubated in AHL + sugar 80 mM for 30′, compared with saline (AHL).

Assay [3] concerns CRH neurons in paraventricular nucleus (PVN). Put plainly: Whole-cell patch-clamp recordings of glucose sensing response in brain slices. It is filed as cell-based, mice. Details: Input R: unit not given here. Here is the method:
Whole-cell patch-clamp recordings from CRH neurons in paraventricular nucleus (PVN) slice preparation and data analysis were performed as previously described (ref).
Briefly, 3 to 5 week old of either male or female mice were anesthetized with isoflurane and transcardially perfused with a modified ice-cold artificial CSF (ACSF) in which NaCl was substituted with an equal molar concentration of sucrose (described below). Then, the mice was decapitated, and the entire brain was removed and then immediately immersed in ice-cold ACSF (220 mM sucrose, 2.5 mM KCl, 5.0 mM MgCl2, 1.0 mM CaCl2, 1.0 mM NaH2PO4, 26 mM NaHCO3, and 10 mM glucose), saturated with 95% O2 and 5% CO2. A brain block containing PVN was mounted on a stage and coronal sections (250 um) were cut with a Leica Vibratome. The sectioned slices were then incubated in oxygenated ACSF at 34° C. for at least 1 hour before recording. The slices were transferred into recording chamber and bathed in oxygenated ACSF. The solution flowing the recording chamber was consists of: (126 mM NaCl, 26 mM NaHCO3, 2.8 mM KCl, 2.5 mM CaCl2, 1.25 mM NaH2PO4, 1.2 mM MgSO4, and 5 mM or 2.5 mM glucose). The pipette solution for whole-cell recording was modified to include an intracellular dye (Alexa Fluor 488): 120 mM K-gluconate, 10 mM KCl, 10 mM HEPES, 5 mM EGTA, 1 mM CaCl2, 1 mM MgCl2, and 2 mM MgATP, 0.03 mM Alexa Fluor 488 dye, pH 7.3. Electrophysiological signals were recorded using an […] amplifier (Molecular Devices), low-pass filtered at 2-5 kHz, and analyzed offline on a PC with pCLAMP programs (Molecular Devices). Recording electrodes had resistances of 4.0-6.0 MΩ when filled with K-gluconate pipette solution.
As the cells to be targeted illuminate red fluorescence from td-tomato, the pipette with positive pressure was attached to cell membrane, which was subsequently giga-sealed by brief negative pressure, before making a tiny hole with more negative pressure to perform whole-cell recordings. Only cells with a whole-cell resistance below 15 MΩ and with a stable resting membrane potential within 1 min were selected and carried out recording. […] At the end of a stable trace, its input resistance was assessed by measuring the voltage deflection to hyperpolarizing rectangular current pulse steps (500 ms of −10 to −50 pA). […] Depending on the cells, it took 1-5 min to change the membrane potential and firing rate. After stabilizing the change in electrophysiological response, input resistance was assessed in the same way as previously described. […] (For most CRH neurons as GE neurons, it took more than 10 min to recover after the response.)
A general note: The patch-clamp technique gives a direct electrical read-out from membranes.

Setting [4] is: Table 2, glucose back to 2.5 mM.

Regarding `O=C(CO)[C@@H](O)[C@H](O)[C@H](O)CO` [D-fructose], the “activation of Dh44+ cells” value was “robustly activated” in assay [1]; “robust and persistent activation” in assay [1] (listed as fructose).
As to `O=CC[C@@H](O)[C@H](O)[C@H](O)CO` [2DG, 2-deoxy-D-glucose], in assay [1], the “peak amplitude, oscillation number and frequency of Dh44+ cells activation” value is “greatly reduced or nearly abolished”; the “activation of Dh44+ cells” value is listed as “small increase in activity that lacked oscillations”. For the same compound, the “release of the Dh44 peptide (amount of Dh44 peptide left inside Dh44+ cells)” value (from here on “release of the Dh44 peptide”) in assay [2] is on record as “did not result in the release”. Moreover, the “release of the Dh44 peptide” value in assay [2] (listed as D-2′-deoxy-glucose) is reported as “did not induce”.
`O=C[C@H](O)[C@@H](O)[C@H](O)[C@H](O)CO` [D-glucose]: the “activation of Dh44+ cells” value in assay [1] was “robust and persistent activation; also recorded: robustly activated”. The f was determined as 0.64 HZ in assay [3] (Table 1 (FIGS. 10A-10B), glucose 5 mM, first); 0.02 HZ in assay [3] (Table 1, glucose 2.5 mM); 0.65 HZ in assay [3] (Table 1, glucose back to 5 mM); 0.64 HZ in assay [3] (Table 2 (FIGS. 11A-11B), glucose 2.5 mM, first); 0.02 HZ in assay [3] (Table 2, glucose 5 mM); 0.65 HZ in assay [3] (setting [4]). The “Input R” value in assay [3] (Table 1, glucose 2.5 mM) was 1.25; in assay [3] (Table 1, glucose 5 mM), 1.40; in assay [3] (Table 2, column headed glucose 2.5 mM) it was 2.66; in assay [3] (Table 2, column headed glucose 5 mM), 2.82. For the same compound, the RMP is on record as −65.8874 mV in assay [3] (Table 1, glucose 2.5 mM); −49.5691 mV in assay [3] (Table 1, glucose 5 mM, first); −57.9124 mV in assay [3] (Table 1, glucose back to 5 mM); −60.5911 mV in assay [3] (Table 2, glucose 2.5 mM, first); −52.4561 mV in assay [3] (Table 2, glucose 5 mM); −59.3806 mV in assay [3] (setting [4]). For the same compound, the “Rev P” value was −222.95 mV in assay [3] (Table 1, glucose 5 mM to 2.5 mM) and −169 mV in assay [3] (Table 2). Further, the “time to change the membrane potential and firing rate” value in assay [3] (after recording solution changed from 5 mM to 2.5 mM glucose) lay within 1 to 5 min. For the same compound, the “electrical activity of the CRH neurons” value in assay [3] (glucose changed from 2.5 mM to 5 mM) was “increased”; in assay [3] (glucose changed from 5 mM to 2.5 mM) it was “decreased”. For the same compound, the “time to recover after the response” value in assay [3] (recording solution changed back to 5 mM glucose, most CRH neurons) is “more than 10 min”.
For the compound `OC[C@H]1O[C@H](O[C@H]2O[C@H](CO)[C@@H](O)[C@H](O)[C@H]2O)[C@H](O)[C@@H](O)[C@@H]1O` [trehalose], the “activation of Dh44+ cells” value in assay [1] is “robust and persistent activation; also recorded: robustly activated”.
Take `O=C[C@@H](O)[C@H](O)[C@@H](O)[C@@H](O)CO` [L-glucose]: in assay [1], the “peak amplitude, oscillation number and frequency of Dh44+ cells activation” value is on record as “greatly reduced or nearly abolished”; the “activation of Dh44+ cells” value is “small increase in activity that lacked oscillations”. Besides, in assay [2], the “release of the Dh44 peptide” value is recorded as “did not result in the release; also recorded: did not induce”.
`NC1=N[C@H](O)[C@H]2[C@H]3O[C@]4(O)O[C@@H]([C@@H](O)[C@@]2(N1)[C@@H]4O)[C@]3(O)CO` [TTX, Tetrodotoxin]: the “effect on D-glucose-mediated activity (Ca++ influx) of Dh44+ cells” value in assay [1] is on record as “small but non-significant effect; also recorded: small but nonsignificant effect”. Further, the “effect on D-glucose-induced Dh44 neuropeptide release” value in assay [2] is recorded as “did not affect”.
Consider `O=C1NC(=O)C(=O)C(=O)N1` [Alloxan], for which, in assay [1] (D-glucose + Alloxan perfusion), the “oscillations of Dh44+ cells” value is listed as “almost complete disappearance” and the “peak amplitude of activation of Dh44+ cells” value was “dramatic decrease”. Moreover, the “effect on D-glucose-mediated activity (Ca++ influx) of Dh44+ cells” value in assay [1] (agent added to the D-glucose solution, Alloxan 4 μM) is reported as “greatly suppressed”. The “effect on D-glucose-induced Dh44 neuropeptide release” value in assay [2] (agent together with D-glucose, ex vivo) is “did not result in the release; also recorded: reduction”.
